{
  "source": "patent US20180200259A1",
  "about": "(priority 2015, published 2018)",
  "key": {"Bv-2 microglial cells": {"tested_on": "Bv-2 microglial cells", "assay": "Aβ oligomer clearance measurement in Bv-2 microglial cell cultures", "format": "cell-based", "details": "0.33 μM galantamine; 24 h before oligomerized Aβ1-42 (10 μM) for 6 h", "method": "Aβ oligomers were prepared using beta-amyloid (1-42) from American Peptide (Product #62-0-80). One aliquot was dissolved in an adequate volume of TBS (50 mM Tris-Buffer, 150 mM NaCl, pH-7.4) to achieve a final concentration of 1.7 mg/ml (corresponding to 340 μM). The solution was sonicated for 2 minutes and then diluted 1:2 in water to obtain a final concentration of 170 μM. Next, the Aβ was allowed to aggregate at 4° C. for 48 hours. Prior to application, the solution was sonicated for another minute.\nBv-2 microglial cells were kept in culture medium (DMEM medium, 10% FBS, 2 mM glutamine, 1% Penc/Strep) until 80-90% confluency. Cells were maintained at 37° C., 95% humidity and 5% CO2. Afterwards, cells were seeded in culture medium on 24-well plates at a cell density of 1×10^5 cells per well. After 24 h, the medium was exchanged for the treatment medium (DMEM medium, 5% FBS, 2 mM glutamine). […] The medium was separated by affinity (removing monomers) and the oligomers not phagocytosed were disaggregated by hexafluoroisopropanol (HFIP) treatment and measured by MSD. […]\nThe immune assay was carried out according to the Mesoscale Discovery manual and plates were read on the Sector Imager (MSD). Analyte levels were evaluated according to adequate Aβ peptide standards (MSD). […] Data are presented as mean ±standard error of mean (SEM) Group differences are evaluated by one-way ANOVA."}, "[1]": {"tested_on": "CA1 pyramidal neurons in the dorsal hippocampus", "assay": "Dendritic spine assessment (Afraxis ESP) after five days ip dosing", "format": "in vivo, mice", "details": "0.1 mg/kg per day for five days", "method": "Adult C57B16 mice, (8 weeks old) were administered vehicle or test sample, 0.005, 0.03, 0.07, 0.1 or 0.2 mg/kg, ip, per day for five days prior to sacrifice after rapid anesthetization with isofluorane. Brain tissue was sectioned into […] slices from anterior to posterior extremes.\nBallistic dye labelling was performed, followed by laser-scanning confocal microscopy (Olympus FV1000) using a 63× objective (1.42 NA) to scan individually labelled neurons at high resolution (0.103×0.103×0.33 μm voxels). Target neurons were identified in the brain region of interest by anatomical location and cell morphology. Microscopy was performed blind to experimental conditions. A minimum of 5 samples per animal were measured for each segment.\nAfraxis ESP dendritic spine analysis and assessment of dendritic membrane integrity. Blind deconvolution (AutoQuant) was applied to raw three-dimensional digital images which were then analyzed for spine density and morphology by trained analysts, individual spines were measured manually for (a) head diameter, (b) length, and (c) neck thickness from image Z-stacks using custom-built Afraxis ESP software. Each dendrite was analyzed by 3 independent analysts. […]\nStatistics. […] For all group comparisons of parametric values, statistical significance was determined using the analysis of variance test (ANOVA; SPSS). […]"}, "Rat cortical neurons": {"tested_on": "Rat cortical neurons", "assay": "Neurite assessment: Aβ1-42 oligomer injury of cortical neurons (MAP-2)", "format": "cell-based", "details": "1 μM; Aβ oligomer 20 μM, 24 h", "method": "Rat cortical neurons were cultured as described by Callizot et al (J Neurosci Res 2013; 91:706-716). On day II of culture, Aβ oligomer solution, 20 μM, was applied. The Aβ oligomer preparation, having an average weight of 90 kDa, prepared as described by Callizot et al (op cit) contained only diffusible species, not fibrils or protofibrils. Briefly, Aβ1-42 peptide at a concentration of 40 μM was dissolved in the culture medium, gently agitated for 3 days at 37° C. in the dark, and used immediately after dilution. Test compound and BDNF (50 ng/ml) were dissolved in culture medium (maximum of 0.1% DMSO final concentration) then pre-incubated with primary cortical neurons for 24 h before the Aβ1-42 oligomer solution application\nThe oligomers were incubated with the neurons and various concentrations of test compound or BDNF, 50 ng/ml, the positive control, for 24 hours, in 6 replicates per condition. Then the supernatant was removed and the neurons were fixed with a cold ethanol and acetic acid solution. The cells were permeabilized with 0.4% saponin and then incubated for 2 h with mouse monoclonal antibody […] microtubule-associated protein 2 (MAP-2). Subsequently, Alexa-Fluor 488 goat anti-mouse IgG was applied, and images were obtained and analyzed automatically."}, "[2]": {"tested_on": "mild to moderate AD patients", "details": "cited from earlier work"}, "[3]": {"tested_on": "adrenal chromaffin and human neuroblastoma cells", "details": "comparison cholinesterase inhibitor; cited from earlier work"}},
  "note": "Counter-ions that a name gives are not always drawn. Like-named read-outs stand apart in the source and are kept apart here.",
  "data": [
    {"compound": "COc1ccc2c3c1O[C@H]1C[C@@H](O)C=C[C@@]31CCN(C)C2", "note": "[Galantamine hydrobromide]", "values": [
      {"measurement": "Aβ1-42 oligomers in the medium", "setting": "Bv-2 microglial cells", "result": "reduced Aβ1-42 oligomers in the medium significantly"},
      {"measurement": "spine density in apical dendritic samples", "setting": "[1]", "result": "significant increase"},
      {"measurement": "protective effect on neurite network reduced by Aβ oligomer", "setting": "Rat cortical neurons", "result": "significant protective effect"}
    ]},
    {"compound": "Solanezumab: antibody directed at the central portion of Aβ", "values": [
      {"measurement": "functional decline as measured by the ADCS-ADL", "setting": "[2]; Expedition I", "result": "not significantly affected"},
      {"measurement": "reduction of functional decline as measured by the ADCS-ADL", "setting": "[2]; Expedition II", "result": 19, "unit": "%"},
      {"measurement": "additional cognitive deterioration on the ADAS-cog versus placebo", "setting": "[2]; patients not receiving cholinesterase inhibitors (no SOC)", "result": 3.6, "unit": "points"},
      {"measurement": "additional cognitive deterioration on the ADAS-cog versus placebo", "setting": "[2]; patients on memantine only", "result": 4.1, "unit": "points"}
    ]},
    {"compound": "Nc1c2c(nc3ccccc13)CCCC2", "note": "[tacrine]", "values": [
      {"measurement": "neuroprotective effect against induced apoptosis", "setting": "[3]", "result": "did not occur"}
    ]}
  ]
}
